Reference: patent US7643943B2, “Methods for monitoring drug activities in vivo” (Wyeth LLC, priority 2003, dated 2010)

Tests used:
[1] = tested on: transcripts in patient PBMCs; experiment: Spearman's rank correlation of changes in PBMC gene expression (HgU95A arrays) with cumulative AUCsum; format: in vivo, human; conditions: change in PBMC expression from baseline
Source text: Consent for the pharmacogenomic portion of the clinical study was received and the project was approved by the local Institutional Review Boards at the participating clinical sites. Blood samples for pharmacogenomic characterization were drawn into cell purification tubes (CPT, Becton Dickinson) prior to therapy and following approximately 8 and 16 weeks of treatment. All blood samples were shipped overnight to the Wyeth Department of Molecular Medicine in Andover, Mass., and PBMCs were isolated from the whole blood samples (8 mL) in CPT tubes according to the manufacturer's procedure. For expression profiling analyses, total RNA was isolated from PBMC pellets using the RNeasy mini kit (Qiagen, Valencia, Calif.) and labeled probe for oligonucleotide arrays was prepared using a modification of the procedure described by Lockhart, et al., NAT. BIOTECHNOL., 14:1675-1680 (1996). […] The “average difference” values for each transcript were normalized to “frequency” values using the scaled frequency normalization method (Hill, et al, GENOME BIOL. 2:research0055.1-0055.13 (2001)) in which the average differences for 11 control cRNAs with known abundance spiked into each hybridization solution were used to generate a global calibration curve. This calibration was then used to convert average difference values for all transcripts to frequency estimates, stated in units of parts per million ranging from 1:300,000 (˜3 parts per million (ppm)) to 1:1000 (1000 ppm). PBMC gene expression data were normalized by the scaled frequency normalization method as described above. […] The filter which removes transcripts called absent in all samples is based upon the absent/present decision call made by the […] 3.2 software, which reflects the relative intensity of hybridization of the labeled probes to perfectly matched oligonucleotides versus hybridization to mismatched oligonucleotides for each transcript on the HgU95A chip. The filter that removes transcripts with a frequency of less than 10 ppm in all samples is designed to remove low abundance transcripts which may have variable expression in technical replicates. […] Changes from pretreatment levels were calculated based on log-transformed expression levels. […] Pairwise correlations were calculated to assess the association between individually derived exposure metrics and gene expression levels measured by HgU95A Affymetrix microarrays during the course of therapy. Correlations were run for two pharmacokinetic parameters—cumulative AUC and cumulative AUCsum, and for four measures of expression level—log2-transformed scaled frequency at 8 weeks, log2-transformed scaled frequency at 16 weeks, the difference between log2-transformed scaled frequency at 8 weeks and baseline, and the difference between log2-transformed scaled frequency at 16 weeks and baseline. Spearman's rank correlations, which are not sensitive to potential non-normal distributional properties of the pharmacokinetic parameters, were computed. The p-value for the hypothesis that the correlation was equal to 0 was calculated for each pairwise correlation. […] The results of permutation tests run for cumulative AUCsum vs expression change at 8 weeks and at 16 weeks are shown in Tables 5a and 5b. […] Table 6 also includes FARP1 (Accession No. A1701049). […] Accession numbers for the 19 transcripts are presented in Table 6, along with columns indicating the coefficient of variation observed in healthy individuals (% CV), the p-value observed in the Spearman correlation, the actual magnitude of the correlation, and the corresponding gene names.

clinical = conditions: human, whole blood
Experimental: In a randomized, double-blind, multicenter trial, once-weekly intravenous doses of 25-, 75-, or 250-mg of CCI-779 were administered to patients with advanced renal cancer that were either previously treated, or untreated and not appropriate candidates for high dose interlukin-2 therapy. Whole blood for CCI-779 and metabolite concentrations was drawn for population pharmacokinetic analysis, and Bayesian-predicted area under the concentration-time curves for parent drug (AUC), parent plus metabolite (AUCsum), and cumulative AUC and AUCsum were derived.
For CCI-779 clearance, factors for dose, attenuation of exposure with multiple-dose, and effect of body surface area were included.
The following examples were based on a randomized, double-blind, multicenter, outpatient phase 2 study of CCI-779 administered by 30 minute intravenous infusion (via an automatic dispensing pump) in patients with advanced RCC. Eligible patients were randomly assigned to treatment in a 1:1:1 ratio to receive 25 mg, 75 mg, or 250 mg of CCI-779 weekly until evidence of disease progression.
Full pharmacokinetic profiling was planned in a subset of patients, with remaining patients to provide sparse sampling.
The bioanalytical method for CCI-779 was performed using whole blood in a liquid chromatography/tandem mass spectrometry (LC/MS/MS) procedure with deuterated internal standard.
In order to characterize the pharmacokinetic profiles of patients providing sparse blood sampling, fully and sparsely sampled patient data were analyzed collectively using a population pharmacokinetic method and the NONMEM application (version 1.0, Revision 5.0 on Windows NT 4.0 computer with Pentium processor, NONMEM Project Group, University of California at San Francisco, Calif.). […] Data were therefore modeled separately and segregated by analyte into two separate data sets with dose, time/duration of administration, and demographic information. […] Construction of the NONMEM infile was performed using SAS (version 8.1) on a Sun Microsystems mainframe computer with Sun OS 5.8. […] In both cases, the model-derived value for AUC for a given patient and analyte were obtained from the quotient of CCI-779 Dose/Clearance (CL), in which CL was obtained from Bayesian estimation and the POSTHOC option of NONMEM.
During model building, an exponential error model was applied to the kinetic model.

[2] = Pharmacodynamic correlation of drug exposure metrics to severity and duration of adverse events; format: in vivo, human
Experimental: For the cumulative dose drug exposure, cumulative AUCsum was determined. Each patients' specific dosing history while on trial medication was determined and used to derive respective AUCs experienced by each patient for the duration of time from start of treatment to time of highest severity adverse event. This test included all the data, irrespective of AE severity, and was analyzed using the asymptotic Mantel-Haenszel Test for Ordinal Association. A severity score of “1” indicating the lowest severity and “3” indicating the highest severity was used. […] Pharmacokinetic parameters were grouped into low, medium and high categories with an equal number of patients in each category. […] Estimation of cumulative exposure was determined for each patient as described above. Duration of an AE was determined by calculating the time interval for which a given patient experienced a given AE. […] The correlations between AE duration and the continuous pharmacokinetic variables were calculated using Spearman rank correlation test (SAS Institute Inc., SAS® […] REFERENCE, Version 8, Cary, N C: SAS Institute Inc., 1999). […] Results of the pharmacodynamic analysis using AUCsum (discrete predictor), cumulative AUCsum (cumulative predictor variable), Ceoi (peak exposure predictor) are shown in Table 12 as derived from 49 differing adverse events recorded for those patients included in the population analysis. […] Cumulative AUCsum refers to aggregate AUCsum based on individual patient dosing history. Ceoi is the CCI-779 concentration observed at end of infusion.

clearance (clinical; intravenous): 24.2 mL/min | clearance (clinical; iv): 23.2 mL/min
SMILES: CO[C@H]1C[C@@H]2CC[C@@H](C)[C@@](O)(O2)C(=O)C(=O)N2CCCC[C@H]2C(=O)O[C@H]([C@H](C)C[C@@H]2CC[C@@H](OC(=O)C(C)(CO)CO)[C@H](OC)C2)CC(=O)[C@H](C)/C=C(\C)[C@@H](O)[C@@H](OC)C(=O)[C@H](C)C[C@H](C)/C=C/C=C/C=C/1C [CCI-779]
Correlation with AUCsum at 16 weeks: KIAA0857 ([1]; AB020664, P-value 0.0006): 0.69 | Correlation with AUCsum at 8 weeks: KIAA0857 ([1]; AB020664, P-value 0.9627): 0.01 | Correlation with AUCsum at 16 weeks: B4GALT3 ([1]; AF038661, P-value 0.0002): 0.73 | Correlation with AUCsum at 8 weeks: B4GALT3 ([1]; AF038661, P-value 0.2589): 0.21 | Correlation with AUCsum at 16 weeks: SLC25A11 ([1]; AF070548, P-value 0.0006): 0.69 | Correlation with AUCsum at 8 weeks: SLC25A11 ([1]; AF070548, P-value 0.0881): 0.32 | Correlation with AUCsum at 16 weeks: IKBKG ([1]; AF074382, P-value 0.0007): 0.68 | Correlation with AUCsum at 8 weeks: IKBKG ([1]; AF074382, P-value 0.1013): 0.30 | Correlation with AUCsum at 16 weeks: UNK_AI147237 ([1]; AI147237, P-value 0.0004): 0.70 | Correlation with AUCsum at 8 weeks: UNK_AI147237 ([1]; AI147237, P-value 0.0877): 0.32 | Correlation with AUCsum at 16 weeks: COX6A1 ([1]; AI540925, P-value 0.0002): −0.73 | Correlation with AUCsum at 8 weeks: COX6A1 ([1]; AI540925, P-value 0.0050): −0.50 | Correlation with AUCsum at 16 weeks: FARP1 ([1]; AI701049, P-value 0.001): 0.66 | Correlation with AUCsum at 8 weeks: FARP1 ([1]; AI701049, P-value 0.0089): 0.47 | Correlation with AUCsum at 16 weeks: U2AF65 ([1]; AI762438, P-value 0.0001): 0.74 | Correlation with AUCsum at 8 weeks: U2AF65 ([1]; AI762438, P-value 0.2209): 0.23 | Correlation with AUCsum at 16 weeks: UNK_AL022318 ([1]; AL022318, P-value 0.0005): 0.69 | Correlation with AUCsum at 8 weeks: UNK_AL022318 ([1]; AL022318, P-value 0.2617): 0.21 | Correlation with AUCsum at 16 weeks: UNK_AL046394 ([1]; AL046394, P-value 0.0002): 0.72 | Correlation with AUCsum at 8 weeks: UNK_AL046394 ([1]; AL046394, P-value 0.0999): 0.31 | Correlation with AUCsum at 16 weeks: UNK_H98552 ([1]; H98552, P-value 0.0003): 0.71 | Correlation with AUCsum at 8 weeks: UNK_H98552 ([1]; H98552, P-value 0.0308): 0.39 | Correlation with AUCsum at 16 weeks: DPEP1 ([1]; J05257, P-value 0.0005): 0.69 | Correlation with AUCsum at 8 weeks: DPEP1 ([1]; J05257, P-value 0.0348): 0.39 | Correlation with AUCsum at 16 weeks: CYP11A ([1]; M14565, P-value 0.0006): 0.69 | Correlation with AUCsum at 8 weeks: CYP11A ([1]; M14565, P-value 0.0838): 0.32 | Correlation with AUCsum at 16 weeks: TNNT1 ([1]; M19309, P-value 0.0004): 0.70 | Correlation with AUCsum at 8 weeks: TNNT1 ([1]; M19309, P-value 0.2684): 0.21 | Correlation with AUCsum at 16 weeks: PML ([1]; M79463, P-value 0.0007): 0.68 | Correlation with AUCsum at 8 weeks: PML ([1]; M79463, P-value 0.0378): 0.38 | Correlation with AUCsum at 16 weeks: SLC19A1 ([1]; U17566, P-value 0.0007): 0.68 | Correlation with AUCsum at 8 weeks: SLC19A1 ([1]; U17566, P-value 0.1220): 0.29 | Correlation with AUCsum at 16 weeks: USP11 ([1]; U44839, P-value 0.0001): 0.76 | Correlation with AUCsum at 8 weeks: USP11 ([1]; U44839, P-value 0.3998): 0.16 | Correlation with AUCsum at 16 weeks: ACTN4 ([1]; U48734, P-value 0.0003): 0.71 | Correlation with AUCsum at 8 weeks: ACTN4 ([1]; U48734, P-value 0.0721): 0.33 | Correlation with AUCsum at 16 weeks: FOXM1 ([1]; U90917, P-value 0.0001): 0.75 | Correlation with AUCsum at 8 weeks: FOXM1 ([1]; U90917, P-value 0.206): 0.24 | Correlation with AUCsum at 16 weeks: SULT2B1 ([1]; U92315, P-value 0.0005): 0.69 | Correlation with AUCsum at 8 weeks: SULT2B1 ([1]; U92315, P-value 0.1066): 0.30 | Spearman correlation to Ceoi: duration of Pain abdomen ([2]; N patients 13, P-value 0.01): 0.01 (0.873) | Correlation to Ceoi: severity of Myalgia ([2]; N patients 13, P-value 0.013, Ceoi = CCI-779 concentration at end of infusion): 0.013 (0.414) | Correlation to Ceoi: severity of Fever ([2]; N patients 17, P-value 0.022): 0.022 (0.402) | Spearman correlation to Ceoi: duration of Fever ([2]; N patients 17, P-value 0.04): 0.04 (−0.626) | Spearman correlation to Ceoi: duration of Anorexia ([2]; N patients 22, P-value 0.015): 0.015 (0.597)
